Two compounds from patent publication US20260285867A1, “IMIDAZOTRIAZINE DERIVATIVES AS IL-17 MODULATORS” (UCB BIOPHARMA SRL, priority 2023, published 2026) can be followed below.

As usually defined, the pIC50 is −log10 of the IC50, conventionally taken in molar units.

The target in this assay is T1, IL-17A (Homo sapiens, UniProt Q16552).
T1 sequence (Q16552 24-155): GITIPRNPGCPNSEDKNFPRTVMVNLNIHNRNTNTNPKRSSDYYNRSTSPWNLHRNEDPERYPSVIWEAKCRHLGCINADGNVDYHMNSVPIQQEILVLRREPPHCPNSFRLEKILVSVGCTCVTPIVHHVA
As to the kind of experiment: Inhibition of IL-17A induced IL-6 release from dermal fibroblast cell line (HDF cell line assay). The format is cell-based. The conditions noted are these: HDF cells stimulated with IL-17A 50 pM + TNFα 25 pM, IL-6 release by HTRF. The source says:
Inhibition of IL-17A Induced IL-6 Release from Dermal Fibroblast Cell Line The purpose of this assay is to test the neutralising ability to IL-17 proteins, in a human primary cell system. Stimulation of normal human dermal fibroblasts (HDF) with IL-17 alone produces only a very weak signal but in combination with certain other cytokines, such as TNFα, a synergistic effect can be seen in the production of inflammatory cytokines, i.e. IL-6. HDFs were stimulated with IL-17A (50 pM) in combination with TNF-α (25 pM). The resultant IL-6 response was then measured using a homogenous time-resolved FRET kit from Cisbio. The kit utilises two monoclonal antibodies, one labelled with Eu-Cryptate (Donor) and the second with d2 or XL665 (Acceptor). The intensity of the signal is proportional to the concentration of IL-6 present in the sample (Ratio is calculated by 665/620×104). The ability of a compound to inhibit IL-17 induced IL-6 release from human dermal fibroblasts is measured in this assay. […] The cells were re-suspended in complete media (5 mL) counted and adjusted to a concentration of 3.125×10^4 cells/mL before being added to the 384 well assay plate (Corning #3701) at 40 μL per well. […] The mixture was incubated at room temperature for 3 h with gentle shaking (<400 rpm) before being read on a Synergy Neo 2 plate reader (Excitation: 330 nm; Emission: […]).
(In general: TR-FRET usually uses a lanthanide donor and a delayed reading to cut background.)

For `Cc1nonc1C(=O)N[C@H](c1cn2ncc(C3(C(=O)NCC(C)(F)F)CC(C)(O)C3)nc2n1)C1CCC(F)(F)CC1` (single isomer, unassigned) [Example 2], for the setting “listed as 2 (Peak 2)”, the pIC50 stood at 8.4.
`Cc1nonc1C(=O)N[C@H](c1cn2ncc(C3(C(=O)NCC(C)(F)F)CC(C)(O)C3)nc2n1)C1CCC(F)(F)CC1` (single isomer, unassigned) [Example 1]: the pIC50 (listed as 1 (Peak 1)) worked out at 7.7.
